Experiment [1] addresses T1, GABA A receptor α1β3γ2 (hα1) (Homo sapiens, UniProt P14867+P18507).
T1 construct: expressed in transfected cells; host or cells: HEK293, transiently transfected; membranes
The experiment is described as follows: [3H]flumazenil competition binding, membranes of HEK293 cells expressing human GABA A α1β3γ2. As to the method: (§1) The affinity of compounds at GABA A receptor subtypes was measured by competition for [^3H]flumazenil (85 Ci/mmol; Roche) binding to HEK293 cells expressing rat (stably transfected) or human (transiently transfected) receptors of composition α1β3γ2, α2β3γ2, α3β3γ2 and α5β3γ2.
(§2) Cell pellets were suspended in Krebs-tris buffer (4.8 mM KCl, 1.2 mM CaCl2, 1.2 mM MgCl2, 120 mM NaCl, 15 mM Tris; pH 7.5; binding assay buffer), homogenized by polytron for ca. 20 sec on ice and centrifuged for 60 min at 4° C. (50000 g; Sorvall, rotor: SM24=20000 rpm). The cell pellets were resuspended in Krebs-tris buffer and homogenized by polytron for ca. 15 sec on ice. Protein was measured (Bradford method, Bio-Rad) and aliquots of 1 mL were prepared and stored at −80° C.
(§3) Radioligand binding assays were carried out in a volume of 200 μL (96-well plates) which contained 100 μL of cell membranes, [^3H]flumazenil at a concentration of 1 nM for α1, α2, α3 subunits and 0.5 nM for α5 subunits and the test compound in the range of 10^−10-3×10^−6 M.
(§4) Nonspecific binding was defined by 10^−5 M diazepam and typically represented less than 5% of the total binding. Assays were incubated to equilibrium for 1 hour at 4° C. and harvested onto GF/C uni-filters (Packard) by filtration using a Packard harvester and washing with ice-cold wash buffer (50 mM Tris; pH 7.5). After drying, filter-retained radioactivity was detected by liquid scintillation counting. Ki values were calculated using Excel-Fit (Microsoft) and are the means of two determinations.

For experiment [2], the target named is T2, GABA A receptor α5β3γ2 (hα5) (Homo sapiens, UniProt P18507+P31644).
T2 construct: expressed in transfected cells; host or cells: HEK293, transiently transfected; membranes
The experiment is described as follows: [3H]flumazenil competition binding, membranes of HEK293 cells expressing human GABA A α5β3γ2. As to the method: as §1, §2, §3, §4

Setting [3] is: [3H]flumazenil 0.5 nM, 1 hour at 4° C., means of two determinations, read-out: Ki[nM] hα5.
The mark [4] stands for this setting: [3H]flumazenil 1 nM, 1 hour at 4° C., means of two determinations, read-out: Ki[nM] hα1.

Structures can show the parent of a compound that is named as a salt. Where two headings read alike, the source gives them in different places.

Usually Ki stands for a dissociation constant, usually derived from enzyme kinetics or from competition with a known ligand. Consider `Cc1noc(Cc2nc3n(n2)Cc2c(Cl)ncn2-c2ccc(Br)cc2-3)n1` [Example 72, 3-Bromo-10-chloro-6-(3-methyl-[1,2,4]oxadiazol-5-ylmethyl)-9H-imidazo[1,5-a][1,2,4]triazolo[1,5-d][1,4]benzodiazepine], for which the figures for the Ki in experiment [1] and in experiment [2] (setting [3]) were 98.2 nM and 0.7 nM, respectively.
For `Cc1ncn2c1Cn1nc(Cc3ccncc3)nc1-c1cc(Br)ccc1-2` [Example 122, 3-Bromo-10-methyl-6-(pyridine-4-ylmethyl)-9H-imidazo[1,5-a][1,2,4]triazolo[1,5-d][1,4]benzodiazepine], the Ki in experiment [1] (setting [4]) came out at 150 nM; in experiment [2], 0.5 nM.
For the molecule `Cc1cc(Cc2nc3n(n2)Cc2c(C)ncn2-c2ccc(Br)cc2-3)on1` [Example 123, 3-Bromo-10-methyl-6-(3-methyl-isoxazol-5-ylmethyl)-9H-imidazo[1,5-a][1,2,4]triazolo[1,5-d][1,4]benzodiazepine], the results for the Ki in experiment [1] (setting [4]) and in experiment [2] were 188 nM and 0.6 nM, respectively.
Regarding `Cc1cc(Cc2nc3n(n2)Cc2c(C)ncn2-c2ccc(Cl)cc2-3)on1` [Example 183, 3-Chloro-10-methyl-6-(3-methyl-isoxazol-5-ylmethyl)-9H-imidazo[1,5-a][1,2,4]triazolo[1,5-d][1,4]benzodiazepine hydrochloride (1:1)], the Ki in experiment [1] (setting [4]) came to 279 nM; in experiment [2] it was 0.6 nM.
In the case of `Cc1ccc(Cc2nc3n(n2)Cc2c(C)ncn2-c2ccc(Cl)cc2-3)cn1` [Example 185, 3-Chloro-10-methyl-6-(6-methyl-pyridin-3-ylmethyl)-9H-imidazo[1,5-a][1,2,4]triazolo[1,5-d][1,4]benzodiazepine], the Ki in experiment [1] (setting [4]) was found to be 248 nM; in experiment [2], 0.9 nM.
In the case of `Cc1ccc2c(c1)-c1nc(Cc3cc(C)no3)nn1Cc1c(C)ncn1-2` [Example 236, 3,10-Dimethyl-6-(3-methyl-isoxazol-5-ylmethyl)-9H-imidazo[1,5-a][1,2,4]triazolo[1,5-d][1,4]benzodiazepine], the values for the Ki in experiment [1] (setting [4]) and in experiment [2] were 496 nM and 0.8 nM, respectively.
With `Cc1ncn2c1Cn1nc(Cc3ccccn3)nc1-c1ccccc1-2` [Example 261, 10-Methyl-6-(pyridine-2-ylmethyl)-9H-imidazo[1,5-a][1,2,4]triazolo[1,5-d][1,4]benzodiazepine], the Ki worked out at 26.6 nM in experiment [1] and 0.7 nM in experiment [2] (setting [3]).
The corresponding values for `Cc1ncn2c1Cn1nc(Cc3cccnc3)nc1-c1ccccc1-2` [Example 265, 10-Methyl-6-(pyridine-3-ylmethyl)-9H-imidazo[1,5-a][1,2,4]triazolo[1,5-d][1,4]benzodiazepine] are 39.3 nM and 0.62 nM.
The corresponding values for `Cc1ncn2c1Cn1nc(Cc3ccncc3)nc1-c1ccccc1-2` [Example 267, 10-Methyl-6-(pyridine-4-ylmethyl)-9H-imidazo[1,5-a][1,2,4]triazolo[1,5-d][1,4]benzodiazepine] are 20.4 nM and 0.25 nM.
For `Cc1ncn2c1Cn1nc(Cn3ccnc3)nc1-c1ccccc1-2` [Example 275, 6-(Imidazol-1-ylmethyl)-10-methyl-9H-imidazo[1,5-a][1,2,4]triazolo[1,5-d][1,4]benzodiazepine hydrochloride (1:1)] the same measures were 33.6 nM and 0.6 nM.
In the case of `CN1CCN(Cc2nc3n(n2)Cc2c(Cl)ncn2-c2ccc(Br)cc2-3)C1=O` [Example 300, 3-Bromo-10-chloro-6-(3-methyl-2-oxo-imidazolidin-1-ylmethyl)-9H-imidazo[1,5-a][1,2,4]triazolo[1,5-d][1,4]benzodiazepine], the figures for the Ki in experiment [1] and in experiment [2] (setting [3]) were 62.1 nM and 0.7 nM, respectively.
As to `O=C1NCCN1Cc1nc2n(n1)Cc1c(Cl)ncn1-c1ccc(Br)cc1-2` [Example 301, 3-Bromo-10-chloro-6-(2-oxo-imidazolidin-1-ylmethyl)-9H-imidazo[1,5-a][1,2,4]triazolo[1,5-d][1,4]benzodiazepine], the Ki in experiment [1] (setting [4]) was determined as 50.5 nM; in experiment [2] (setting [3]) it was 0.7 nM.
On to `O=C1CSC(=O)N1Cc1nc2n(n1)Cc1c(Cl)ncn1-c1ccc(Br)cc1-2` [Example 309, 3-Bromo-10-chloro-6-(2,4-dioxo-thiazolidin-3-ylmethyl)-9H-imidazo[1,5-a][1,2,4]triazolo[1,5-d][1,4]benzodiazepine], for which the Ki is 55.2 nM in experiment [1] and 0.5 nM in experiment [2] (setting [3]).
As to `O=C1CCC(=O)N1Cc1nc2n(n1)Cc1c(Cl)ncn1-c1ccc(Br)cc1-2` [Example 310, 3-Bromo-10-chloro-6-(2,5-dioxo-pyrrolidin-1-ylmethyl)-9H-imidazo[1,5-a][1,2,4]triazolo[1,5-d][1,4]benzodiazepine], the Ki in experiment [1] (setting [4]) turned out to be 69.7 nM; in experiment [2] (setting [3]) it was 0.7 nM.
With `O=C1SCCN1Cc1nc2n(n1)Cc1c(Cl)ncn1-c1ccc(Br)cc1-2` [Example 312, 3-Bromo-10-chloro-6-(2-oxo-thiazolidin-3-ylmethyl)-9H-imidazo[1,5-a][1,2,4]triazolo[1,5-d][1,4]benzodiazepine], the Ki worked out at 60 nM in experiment [1] and 0.5 nM in experiment [2] (setting [3]).
For `C[C@H]1CN(Cc2nc3n(n2)Cc2c(Cl)ncn2-c2ccc(Br)cc2-3)C(=O)O1` [Example 314, 3-Bromo-10-chloro-6-((5S)-5-methyl-2-oxo-oxazolidin-3-ylmethyl)-9H-imidazo[1,5-a][1,2,4]triazolo[1,5-d][1,4]benzodiazepine] the same measures were 32.3 nM and 0.7 nM.
As to `O=C1OCCN1Cc1nc2n(n1)Cc1c(Cl)ncn1-c1ccc(Cl)cc1-2` [Example 316, 3,10-Dichloro-6-(2-oxo-oxazolidin-3-ylmethyl)-9H-imidazo[1,5-a][1,2,4]triazolo[1,5-d][1,4]benzodiazepine], the Ki in experiment [1] (setting [4]) was determined as 116 nM; in experiment [2], 0.9 nM.
In the case of `Cc1ncn2c1Cn1nc(Cn3ncccc3=O)nc1-c1cc(Br)ccc1-2` [Example 330, 3-Bromo-10-methyl-6-(6-oxo-6H-pyridazin-1-ylmethyl)-9H-imidazo[1,5-a][1,2,4]triazolo[1,5-d][1,4]benzodiazepine hydrochloride (1:1)], the Ki in experiment [1] (setting [4]) stood at 134 nM; in experiment [2], 0.7 nM.
`Cc1noc(Cc2nc3n(n2)Cc2c(C)ncn2-c2ccc(Br)cc2-3)n1` [Example 349, 3-Bromo-10-methyl-6-(3-methyl-[1,2,4]oxadiazol-5-ylmethyl)-9H-imidazo[1,5-a][1,2,4]triazolo[1,5-d][1,4]benzodiazepine]: the figures for the Ki in experiment [1] (setting [4]) and in experiment [2] were 469 nM and 0.9 nM, respectively.
Consider `Cc1ncn2c1Cn1nc(Cn3ccccc3=O)nc1-c1ccccc1-2` [Example 378, 10-Methyl-6-(2-oxo-2H-pyridin-1-ylmethyl)-9H-imidazo[1,5-a][1,2,4]triazolo[1,5-d][1,4]benzodiazepine], for which the Ki in experiment [1] came to 42.1 nM; in experiment [2] (setting [3]) it was 0.6 nM.
For the molecule “Ethyl 3-bromo-6-methoxymethyl-9H-imidazo[1,5-a][1,2,4]triazolo[1,5-d][1,4]benzodiazepine-10-carboxylate [Example 38]”, the Ki in experiment [1] (setting [4]) worked out at 6.9 nM; in experiment [2] (setting [3]), 0.4 nM.

The values are drawn from patent publication US7507729B2, “Substituted imidazo-[1,5-a][1,2,4]triazolo[1,5-d][1,4] benzodiazepine derivatives” (priority 2005, dated 2009).
